Tests used:
caspase-3 [1] = experiment: Caspase-3 activation (apo-One assay) in HBL-2 cells; format: cell-based, human; settings: for Caspase-3 activity in exposed cells, dose dependence: see FIG. 4
Description: (§1) Mantle cell lymphoma (HBL-2 (Human B-cell lymphoma-derived cell line), Granta, JVM-2, NCEB-1, Z138C) and DoHH2 cell lines were obtained from the British Columbia Cancer Agency. p53 cell lines were obtained from the NCI. Gallium maltolate and gallium nitrate were obtained from Titan Pharmaceuticals Inc. (San Francisco, Calif.) and Genta Incorporated (Berkley Heights, N.J.), respectively. Cell proliferation was measured by MTT assay (Mosmann T. “Rapid colorimetric assay for cellular growth and survival: Application to proliferation and cytotoxicity assays”. J Immunol Methods 1983; 65:55-63, incorporated by reference here in its entirety). Caspase-3 activity was measured by ApoOne assay (Promega, Madison, Wis.). Assays for cellular ^59Fe-transferrin uptake and ^125I-transferrin binding were used as previously described in Chitambar, 1997.
After incubation with these compounds, the cells were analyzed for apoptosis using the commercially available apo-One™ assay that measures caspase-3 activation. Data points are the means and S.E. of an experiment performed in triplicate.

caspase-3 [2] = experiment: Caspase-3 activity (apo-One assay) in GnR CCRF-CEM cells; format: cell-based, human; settings: 24 h incubation, FIG. 5D
Description: as §1
After the incubation period, caspase-3 activity was measured by apo-One™ assay.

lymphoma cell lines = experiment: Annexin V staining of cells exposed to gallium compounds; format: cell-based; settings: cells exposed to GaN or GaM
[3] = tested on: MCL cell lines HBL2, JVM2, Z138C, and Granta; experiment: MTT cell growth assay, mantle cell lymphoma (MCL) cell lines; format: cell-based, human; settings: range over the four cell lines, 72 h, read-out: IC50, growth inhibition of MCL cell lines HBL2, JVM2, Z138C, and Granta
Description: Mantle cell lymphoma (HBL-2 (Human B-cell lymphoma-derived cell line), Granta, JVM-2, NCEB-1, Z138C) and DoHH2 cell lines were obtained from the British Columbia Cancer Agency. p53 cell lines were obtained from the NCI. Gallium maltolate and gallium nitrate were obtained from Titan Pharmaceuticals Inc. (San Francisco, Calif.) and Genta Incorporated (Berkley Heights, N.J.), respectively. Cell proliferation was measured by MTT assay (Mosmann T. “Rapid colorimetric assay for cellular growth and survival: Application to proliferation and cytotoxicity assays”. J Immunol Methods 1983; 65:55-63, incorporated by reference here in its entirety). Caspase-3 activity was measured by ApoOne assay (Promega, Madison, Wis.). […]
(§2) CCRF-CEM cells were plated at a density of 2×10^5 cells/ml in microwell plates (100 μL cell suspension per well) in the presence of increasing concentrations of gallium maltolate or maltol (subsequently referred to as the additives). […] Cells were then solubilized by the addition of 100 μL of 0.4 N HCl in isopropanol to each well and the absorbance of each well was read at 570 nm using a microplate reader. The effect of the additives on cell proliferation was determined by comparing the absorbance from wells containing the additives with the absorbance from wells in which the additives were omitted (decreased absorbance signifies decreased cell proliferation). […]

CCRF-CEM cells = experiment: MTT cell growth assay, CCRF-CEM cells (GaN-sensitive); format: cell-based, human; settings: for IC50: MTT assay, 72 h incubation, read-out: IC50, inhibition of T lymphoma CCRF-CEM cell growth; for Inhibition of CCRF-CEM cell growth (in words): increasing concentrations, 72 h, MTT, FIG. 2
Description: CCRF-CEM cells were obtained from ATCC.
as §1
CCRF-CEM cells were plated at a density of 2×10^5 cells/ml in microwell plates (100 μL cell suspension per well) in the presence of increasing concentrations of gallium maltolate or maltol (subsequently referred to as the additives). After 72 h of incubation, 10 μL MTT (3-(4,5-dimethlythiazol-2-yl)-2,5-diphenyltetrazolium bromide) was added to each well and the incubation continued for 4 h at 37° C. Cells were then solubilized by the addition of 100 μL of 0.4 N HCl in isopropanol to each well and the absorbance of each well was read at 570 nm using a microplate reader. The effect of the additives on cell proliferation was determined by comparing the absorbance from wells containing the additives with the absorbance from wells in which the additives were omitted (decreased absorbance signifies decreased cell proliferation). Cell growth was expressed as a percentage of control (cell growth in the absence of additives). Cell proliferation was assessed after 72 h of incubation with gallium maltolate or maltol.
Cell growth was determined by MTT assay as described in Example 1 above. Values shown are means +/−S.E. (n=4).
To determine the effect of GaM on the growth of gallium nitrate-resistant (GnR) and -sensitive (GnS) cells, cells were plated in microwell plates and incubated with GaM. Cellular proliferation was measured by MTT assay after 72 h incubation with GaM. Values shown are means +/−S.E. (n=4).

p53 mutant WTK-1 cells = experiment: MTT cell growth assay, p53 mutant WTK-1 cells; format: cell-based, human; settings: 72 h
Description: (§3) Mantle cell lymphoma (HBL-2 (Human B-cell lymphoma-derived cell line), Granta, JVM-2, NCEB-1, Z138C) and DoHH2 cell lines were obtained from the British Columbia Cancer Agency. p53 cell lines were obtained from the NCI. […] Cell proliferation was measured by MTT assay (Mosmann T. “Rapid colorimetric assay for cellular growth and survival: Application to proliferation and cytotoxicity assays”. J Immunol Methods 1983; 65:55-63, incorporated by reference here in its entirety). Caspase-3 activity was measured by ApoOne assay (Promega, Madison, Wis.). Assays for cellular ^59Fe-transferrin uptake and ^125I-transferrin binding were used as previously described in Chitambar, 1997.
as §2

[4] = tested on: GaN-resistant CCRF-CEM cells; experiment: MTT cell growth assay, gallium nitrate-resistant (GnR) CCRF-CEM cells; format: cell-based, human
Description: as §3, §2

HBL-2 cells [5] = experiment: MTT cell proliferation assay, mantle cell lymphoma HBL-2 cells; format: cell-based, human; settings: 72 h, FIG. 3
Description: Mantle cell lymphoma (HBL-2 (Human B-cell lymphoma-derived cell line), Granta, JVM-2, NCEB-1, Z138C) and DoHH2 cell lines were obtained from the British Columbia Cancer Agency. p53 cell lines were obtained from the NCI. […] (San Francisco, Calif.) and Genta Incorporated (Berkley Heights, N.J.), respectively. Cell proliferation was measured by MTT assay (Mosmann T. “Rapid colorimetric assay for cellular growth and survival: Application to proliferation and cytotoxicity assays”. J Immunol Methods 1983; 65:55-63, incorporated by reference here in its entirety). Caspase-3 activity was measured by ApoOne assay (Promega, Madison, Wis.). Assays for cellular ^59Fe-transferrin uptake and ^125I-transferrin binding were used as previously described in Chitambar, 1997. […] Cells were then solubilized by the addition of 100 μL 0.4 N HCl in isopropanol to each well and the absorbance of each well was read at 570 nm using a spectrophotometer. Cell proliferation was measured after a 72 h incubation period. The effect of the additives on cell proliferation was determined by comparing the absorbance from wells with the additives with the absorbance from wells in which the additives were omitted (decreased absorbance signifies decreased cell proliferation). Cell growth was expressed as a percentage of control (cell growth in the absence of additives).

HBL-2 cells [6] = experiment: Cellular 59Fe-transferrin (iron) uptake by HBL-2 cells; format: cell-based, human; settings: 24 h, increasing concentrations of GaM, FIG. 7
Description: as §1
HBL-2 cells were incubated in complete medium in the presence of increasing concentrations of GaM. Radioiron (^59Fe-transferrin) was added to cells at the start of the incubation. After 24 h, cells were harvested, washed with phosphate buffered saline to remove unincorporated ^59Fe and centrifuged to pellet the cells. ^59Fe radioactivity in the cell pellet was counted in a gamma counter. The results showing that the amount of radioiron taken up by cells decreases with increasing concentrations of GaM are depicted in FIG. 7.

p53 wt TK-6 cells = experiment: MTT cell growth assay, p53 wt TK-6 cells; format: cell-based, human; settings: 72 h
Description: as §3, §2

p53 null HN-32 cells = experiment: MTT cell growth assay, p53 null HN-32 cells; format: cell-based, human; settings: 72 h
Description: as §3, §2

[7] = tested on: transferrin (Tf) receptor; experiment: 125I-transferrin binding assay, cell surface transferrin receptor density in HBL-2 cells; format: cell-based, human; settings: FIG. 8
Description: as §1
To determine the mechanism by which GaM acts on cells, cellular transferrin receptor expression was evaluated in HBL-2 cells. The effect of GaM on cellular transferrin receptor expression was determined using a ^125I-transferrin (Tf) binding assay that measures the binding of the ligand Tf to its receptor (TfR). HBL-2 cells were incubated with increasing concentrations of GaM for 24 and 48 h and then analyzed for Tf binding using an established method. The amount of radioactive Tf bound to cellular TfR was calculated using Scatchard analysis.

Structure (SMILES)	Caspase-3 activity in exposed cells, dose dependence (caspase-3 [1])	Caspase-3 activation in GnR cells (caspase-3 [2])	Annexin V staining (lymphoma cell lines)	IC50 [3]	IC50 (CCRF-CEM cells)	Caspase-3 activation in HBL-2 cells (caspase-3 [1]; 48 h incubation, similar concentrations of GaM and GaN, FIG. 4)	IC50 (p53 mutant WTK-1 cells)	Growth of p53 mutant WTK-1 cells (in words) (p53 mutant WTK-1 cells; FIG. 6)	Proliferation of GnR cells resistant to GaN (in words) ([4]; FIG. 5)	IC50 ([4]; MTT assay, 72 h incubation, read-out: IC50, growth inhibition of GaN-resistant cells)	Inhibition of HBL-2 cell proliferation, GaM compared with GaN (in words) (HBL-2 cells [5])	Amount of radioiron (59Fe) taken up by cells (HBL-2 cells [6])	IC50 (p53 wt TK-6 cells)	Growth of p53 wt TK-6 cells (in words) (p53 wt TK-6 cells; FIG. 6)	Inhibition of CCRF-CEM cell growth (in words) (CCRF-CEM cells)	IC50 (p53 null HN-32 cells)	Growth of p53 null HN-32 cells (in words) (p53 null HN-32 cells; FIG. 6)	Number of TfRs on the cell surface ([7]; 24 h, 25 and 50 μM GaM)	Number of TfRs on the cell surface ([7]; 48 h, 25 μM GaM)
O=[N+]([O-])[O-].O=[N+]([O-])[O-].O=[N+]([O-])[O-].[Ga+3] [GaN, gallium nitrate, reference compound]	dose-dependent increase	not	increase	45 to 400 µM	103 µM	–	–	–	–	–	–	–	–	–	–	–	–	–	–
Cc1occc(=O)c1[O-].Cc1occc(=O)c1[O-].Cc1occc(=O)c1[O-].[Ga+3] [GaM, gallium maltolate]	dose-dependent increase	activates caspase-3	increase	15 to 30 µM	29 µM	activated	45 µM	inhibited to a similar extent	inhibits proliferation	70 µM	much lower concentrations of gallium were required to inhibit cell proliferation	decreases	18 µM	inhibited to a similar extent	inhibited	45 µM	inhibited to a similar extent	increase the number of TfRs	increases TfR number
Cc1occc(=O)c1O [Maltol, maltol, reference compound]	–	–	–	–	–	–	–	–	–	–	–	–	–	–	did not inhibit cell growth	–	–	–	–

— US20070231407A1, “Method of treating gallium-nitrate resistant tumors using gallium-containing compounds” (priority 2006, published 2007)
